Assay results from patent US8017612B2, “Piperazine compound and use thereof as a HCV polymerase inhibitor” (priority 2006, dated 2011).
Where a name gives a salt, the structure may show the parent alone.

Legend:
[1] = biological target: T1, HCV polymerase (NS5B) type 1b (Hepatitis C virus genotype 1b, UniProt P26663); test: Assay of enzyme (HCV polymerase) inhibitory activity, type 1b enzyme; type: biochemical, HCV BK strain (type 1b); settings: HCV polymerase inhibitory activity (IC50), 1b, type 1b enzyme 0.5 μg/ml, 25° C., 60 min
T1 construct: a region encoding NS5B (J Virol 1991 March, 65(3), 1105-13, 544 amino acids after deletion of 47 amino acids on the C-terminal); 6xHis (C); made in house; host or cells: Escherichia coli
Summary of the method: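 IC50 derived from [3H]UTP incorporation into TCA-insoluble RNA, compared with and without test compound. Reaction (25 °C, 60 min, Tris pH 7.5, 5 mM MgCl2): E. coli-expressed 1b NS5B Δ47 with His tag at 0.5 μg/ml, 5 μg/ml run-off substrate RNA, ATP/GTP/CTP 50 μM, UTP 2 μM.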

[2] = biological target: T2, HCV polymerase (NS5B) type 1a (Hepatitis C virus genotype 1a, UniProt P26664); test: Assay of enzyme (HCV polymerase) inhibitory activity, type 1a enzyme; type: biochemical, HCV type 1a (cloned from the blood of patients); settings: HCV polymerase inhibitory activity (IC50), 1a, type 1a enzyme 1.5 μg/ml, 25° C., 60 min
T2 construct: made in house; host or cells: Escherichia coli (by the 'similar method' of the 1b enzyme)
Summary of the method: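 Reactions ran 60 min at 25° C in 20 mM Tris-HCl pH 7.5, 5 mM MgCl2, 50 mM NaCl, holding genotype 1a NS5B (1.5 μg/ml, Δ47 C-terminus, 6His), substrate RNA 5 μg/ml, UTP 2 μM with tritiated UTP and other NTPs 50 μM. IC50 derived from incorporated radiolabel in filter-trapped RNA relative to uninhibited reaction.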

Row | SMILES | IC50 [1] [nM] | IC50 [2] [nM]
1 | CC(=O)N1CCN(S(=O)(=O)c2ccc(C(C)C)s2)C(C(=O)NCc2ccc(C(F)(F)F)cc2)C1 (stereo not drawn) [Example 75, 4-acetyl-1-(5-isopropyl-thiophene-2-sulfonyl)-piperazine-2-carboxylic acid 4-trifluoromethyl-benzylamide] | > 1000 | > 1000
2 | COC(=O)c1ccc(CNC(=O)C2CN(C(C)=O)CCN2S(=O)(=O)c2ccc(C(C)C)cc2)cc1 (stereo not drawn) [Example 76, 4-({[4-acetyl-1-(4-isopropyl-benzenesulfonyl)-piperazine-2-carbonyl]-amino}-methyl)-benzoic acid methyl ester] | > 1000 | > 1000
3 | CC(=O)N1CCN(S(=O)(=O)c2ccc(C(C)C)cc2)C(C(=O)NCc2ccc([N+](=O)[O-])cc2)C1 (stereo not drawn) [Example 77, 4-acetyl-1-(4-isopropyl-benzenesulfonyl)-piperazine-2-carboxylic acid 4-nitro-benzylamide] | > 1000 | > 1000
4 | CC(=O)N1CCN(S(=O)(=O)c2ccc(C(C)C)cc2)C(C(=O)NCc2cccc(F)c2)C1 (stereo not drawn) [Example 78, 4-acetyl-1-(4-isopropyl-benzenesulfonyl)-piperazine-2-carboxylic acid 3-fluoro-benzylamide] | > 1000 | > 1000
5 | CC(=O)N1CCN(S(=O)(=O)c2ccc(C(C)C)cc2)C(C(=O)NCCc2c[nH]c3ccccc23)C1 (stereo not drawn) [Example 79, 4-acetyl-1-(4-isopropyl-benzenesulfonyl)-piperazine-2-carboxylic acid [2-(1H-indol-3-yl)-ethyl]-amide] | > 1000 | > 1000
6 | CC(=O)N1CCN(S(=O)(=O)c2ccc(C(C)C)cc2)C(C(=O)NCc2ccc(N3CCOCC3)cc2)C1 (stereo not drawn) [Example 80, 4-acetyl-1-(4-isopropyl-benzenesulfonyl)-piperazine-2-carboxylic acid 4-morpholin-4-yl-benzylamide] | > 1000 | > 1000
7 | CC(=O)N1CCN(S(=O)(=O)c2ccc(C(C)C)cc2)C(C(=O)NCc2ccc(N3CCN(C)CC3)cc2)C1 (stereo not drawn) [Example 81, 4-acetyl-1-(4-isopropyl-benzenesulfonyl)-piperazine-2-carboxylic acid 4-(4-methyl-piperazin-1-yl)-benzylamide] | > 1000 | > 1000
8 | CN(C)c1ccc(CNC(=O)C2CN(C(=O)OC(C)(C)C)CCN2S(=O)(=O)c2ccc(I)cc2)cc1 (stereo not drawn) [Example 82, 3-(4-dimethylamino-benzylcarbamoyl)-4-(4-iodo-benzenesulfonyl)-piperazine-1-carboxylic acid tert-butyl ester] | > 1000 | > 1000
9 | CC(=O)N1CCN(S(=O)(=O)c2ccc(OC(C)C)cc2)C(C(=O)NCc2ccc(C(F)(F)F)cc2)C1 (stereo not drawn) [Example 83, 4-acetyl-1-(4-isopropoxy-benzenesulfonyl)-piperazine-2-carboxylic acid 4-trifluoromethyl-benzylamide] | > 1000 | > 1000
10 | CN(C)c1ccc(CNC(=O)C2CNCCN2S(=O)(=O)c2ccc(I)cc2)cc1 (stereo not drawn) [Example 84, 1-(4-iodo-benzenesulfonyl)-piperazine-2-carboxylic acid 4-dimethylamino-benzylamide hydrochloride] | > 1000 | > 1000
11 | CC(=O)N1CCN(S(=O)(=O)c2ccc(I)cc2)C(C(=O)NCc2ccc(N(C)C)cc2)C1 (stereo not drawn) [Example 85, 4-acetyl-1-(4-iodo-benzenesulfonyl)-piperazine-2-carboxylic acid 4-dimethylamino-benzylamide] | > 1000 | 100 to 1000
12 | CN(C)c1ccc(CNC(=O)C2CN(C(=O)CNC(=O)OC(C)(C)C)CCN2S(=O)(=O)c2ccc(I)cc2)cc1 (stereo not drawn) [Example 86, {2-[3-(4-dimethylamino-benzylcarbamoyl)-4-(4-iodo-benzenesulfonyl)-piperazin-1-yl]-2-oxo-ethyl}-carbamic acid tert-butyl ester] | > 1000 | > 1000
